Key:
[1] = test system: collagen type II induced arthritis; test: Collagen-induced arthritis, Example 2B: limb involvement; type: in vivo, mouse; conditions: 2 mg/kg body weight i.p.
Experimental: (§1) Male DBA/1 mice were immunized intradermally with 100 μg of bovine type II collagen emulsified in complete Freund's adjuvant (Difco Laboratories, East Molsey, UK). The mean day of onset of arthritis was approximately one month after immunization. After the onset of clinically evident arthritis (erythema and/or swelling), mice were injected intraperitoneally with therapeutic agents. Arthritis was monitored for clinical score and paw swelling (measured with calipers) for 10 days, after which the mice were sacrificed and joints were processed for histology. Sera were collected for analysis on day 10. Therapeutic agents were administered on day 1 (onset), day 4 and day 7. The therapeutic agents included TNF receptor/IgG fusion protein (p55-sf2), anti-TNF antibody, anti-CD4 antibody, and methylprednisolone acetate.
Using the Experimental Procedure described above, groups of mice were subjected to treatment with TNF receptor/IgG protein (2 μg) (18 mice), TNF receptor/IgG protein (20 μg) (18 mice), TNF receptor/IgG protein (100 μg) (12 mice), anti-TNF monoclonal antibody (mAb) (300 μg) (17 mice), methylprednisolone acetate (6 mice), an irrelevant human IgG1 monoclonal antibody (mAb) (6 mice), or saline (control). The TNF receptor/IgG fusion protein, herein referred to as p55-sf2, (Butler et al., Cytokine (in press): (1994), was provided by Centocor, Inc., Malvern Pa.; it is dimeric and consists of the human p55 TNF receptor (extracellular domains) fused to a partial J sequence followed by the whole of the constant region of the hunan IgG1 heavy chain, itself associated with the constant region of a kappa light chain. The […] antibody was TN3-19.12, a neutralizing hamster IgG1 anti-TNFα/β monoclonal antibody (Sheehan, K. C. et al., J. Immunology 142:3884-3893 (1989)), and was provided by R. Schreiber, Washington University Medical School (St. Louis, Mo., USA), in conjunction with Celltech (Slough, UK). […]

[2] = test system: collagen type II induced arthritis; test: Collagen-induced arthritis, Example 2B: histology of PIP joints; type: in vivo, mouse; conditions: 2 mg/kg body weight i.p.
Experimental: as §1
Using the Experimental Procedure described above, groups of mice were subjected to treatment with TNF receptor/IgG protein (2 μg) (18 mice), TNF receptor/IgG protein (20 μg) (18 mice), TNF receptor/IgG protein (100 μg) (12 mice), anti-TNF monoclonal antibody (mAb) (300 μg) (17 mice), methylprednisolone acetate (6 mice), an irrelevant human IgG1 monoclonal antibody (mAb) (6 mice), or saline (control). […]

CC(=O)OCC(=O)[C@@]1(O)CC[C@H]2[C@@H]3C[C@H](C)C4=CC(=O)C=C[C@]4(C)[C@H]3[C@@H](O)C[C@@]21C [Methylprednisolone acetate, methylprednisolone acetate]
Increase (%) in limbs affected [1]: 33%
Limbs Affected (mean ± SEM) Day 1 ([1]; Day 1): 1.00 ± 0.00
Limbs Affected (mean ± SEM) Day 10 ([1]; Day 10): 1.50 ± 0.22
PIP Joints with Erosions (%) [2]: (67%)
PIP Joints with Erosions (number/total) [2]: 4/6
